US12590091B2, “1H-pyrrolo[3,2-C]pyridine and 1H-pyrrolo[2,3-C]pyridine derivatives as TLR9 inhibitors for the treatment of fibrosis” (BRISTOL-MYERS SQUIBB COMPANY, priority 2020, dated 2026)

What was measured:
human TLR9 = biological target: T1, human TLR9 (Homo sapiens, UniProt Q9NR96); experiment: TLR9 inhibition reporter assay (HEK-Blue cells, SEAP reporter); assay type: cell-based; settings: HEK-Blue cells overexpressing human TLR9, stimulated with ODN2006 5 nM, 22 hour incubation
T1 construct: host or cells: HEK-Blue cells
T1 sequence (Q9NR96 26-1032): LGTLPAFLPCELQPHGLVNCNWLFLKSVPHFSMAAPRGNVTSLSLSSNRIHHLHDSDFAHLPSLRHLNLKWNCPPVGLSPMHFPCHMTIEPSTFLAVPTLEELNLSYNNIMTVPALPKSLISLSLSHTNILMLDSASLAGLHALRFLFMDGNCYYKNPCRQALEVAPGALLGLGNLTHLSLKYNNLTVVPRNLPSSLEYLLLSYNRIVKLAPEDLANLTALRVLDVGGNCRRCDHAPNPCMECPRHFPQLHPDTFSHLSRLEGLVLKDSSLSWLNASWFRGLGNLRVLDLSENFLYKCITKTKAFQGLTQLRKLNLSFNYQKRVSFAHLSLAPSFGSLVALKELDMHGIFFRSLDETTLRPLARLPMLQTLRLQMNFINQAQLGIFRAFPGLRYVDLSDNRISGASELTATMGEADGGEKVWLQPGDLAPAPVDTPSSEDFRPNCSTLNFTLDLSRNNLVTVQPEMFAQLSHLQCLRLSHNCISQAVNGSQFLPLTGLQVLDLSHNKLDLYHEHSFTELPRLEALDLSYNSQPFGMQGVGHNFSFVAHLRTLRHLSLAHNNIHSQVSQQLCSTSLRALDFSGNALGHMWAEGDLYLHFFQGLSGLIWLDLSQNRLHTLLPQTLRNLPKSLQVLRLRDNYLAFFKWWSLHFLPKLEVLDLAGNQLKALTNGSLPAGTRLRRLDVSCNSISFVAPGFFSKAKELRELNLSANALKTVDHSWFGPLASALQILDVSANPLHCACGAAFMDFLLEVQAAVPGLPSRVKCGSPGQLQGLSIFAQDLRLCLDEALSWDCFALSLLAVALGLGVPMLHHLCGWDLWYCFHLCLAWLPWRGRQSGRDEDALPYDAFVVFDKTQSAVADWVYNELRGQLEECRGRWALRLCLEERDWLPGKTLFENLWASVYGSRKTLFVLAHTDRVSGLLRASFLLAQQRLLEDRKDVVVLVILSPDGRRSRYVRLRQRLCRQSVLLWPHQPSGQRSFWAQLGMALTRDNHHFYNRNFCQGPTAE
How it was run: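 HEK-Blue cells overexpressing human TLR9 (25,000 cells/well), NF-κB/AP-1-driven SEAP reporter. Compounds at 0.05 nM–50 μM final, 22 h at 37 °C, 5% CO2 with agonist. SEAP detected with HEK-Blue Detection medium; % inhibition versus agonist plus DMSO and known-inhibitor wells.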

human TLR7 = biological target: T2, human TLR7 (Homo sapiens, UniProt Q9NYK1); experiment: TLR7 inhibition reporter assay (HEK-Blue cells, SEAP reporter); assay type: cell-based; settings: HEK-Blue cells overexpressing human TLR7, stimulated with gardiquimod 7.5 μM, 22 hour incubation
T2 construct: host or cells: HEK-Blue cells
T2 sequence (Q9NYK1 27-1049): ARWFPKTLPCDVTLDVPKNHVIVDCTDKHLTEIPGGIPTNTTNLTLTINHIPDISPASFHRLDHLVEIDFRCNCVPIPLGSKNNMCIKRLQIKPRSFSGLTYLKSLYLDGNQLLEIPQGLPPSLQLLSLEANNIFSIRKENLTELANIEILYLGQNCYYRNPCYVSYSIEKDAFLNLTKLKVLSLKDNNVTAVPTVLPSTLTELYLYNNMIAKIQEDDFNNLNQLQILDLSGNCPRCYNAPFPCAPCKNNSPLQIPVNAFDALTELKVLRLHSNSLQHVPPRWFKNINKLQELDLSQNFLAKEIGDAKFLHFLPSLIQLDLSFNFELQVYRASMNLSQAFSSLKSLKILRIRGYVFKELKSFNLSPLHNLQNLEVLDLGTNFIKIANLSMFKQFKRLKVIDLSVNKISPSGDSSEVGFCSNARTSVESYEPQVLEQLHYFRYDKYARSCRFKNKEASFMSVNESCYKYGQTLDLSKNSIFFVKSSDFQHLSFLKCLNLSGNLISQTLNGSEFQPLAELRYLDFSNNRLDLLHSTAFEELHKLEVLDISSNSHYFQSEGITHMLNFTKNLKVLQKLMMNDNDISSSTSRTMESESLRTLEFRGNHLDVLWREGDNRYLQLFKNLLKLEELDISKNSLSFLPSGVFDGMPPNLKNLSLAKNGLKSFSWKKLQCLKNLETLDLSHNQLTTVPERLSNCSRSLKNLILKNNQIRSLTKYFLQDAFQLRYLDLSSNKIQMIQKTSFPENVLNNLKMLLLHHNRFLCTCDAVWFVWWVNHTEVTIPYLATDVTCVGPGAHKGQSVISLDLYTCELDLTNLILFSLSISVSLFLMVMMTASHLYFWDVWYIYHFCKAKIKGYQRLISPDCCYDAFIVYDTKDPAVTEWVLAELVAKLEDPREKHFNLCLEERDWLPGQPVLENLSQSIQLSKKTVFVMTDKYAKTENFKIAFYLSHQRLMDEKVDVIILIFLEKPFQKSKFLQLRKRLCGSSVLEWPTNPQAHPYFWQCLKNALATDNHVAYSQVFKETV
How it was run: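 Agonists used: gardiquimod 7.5 μM (TLR7), R848 15.9 μM (TLR8), ODN2006 5 nM (TLR9), added after 30 min room-temperature compound pre-treatment (0.05 nM–50 μM) of receptor-overexpressing HEK-Blue cells. SEAP reporter (NF-κB/AP-1 driven) read after 22 h at 37 °C; inhibition scaled between agonist+DMSO and reference-inhibitor wells.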

Row | Compound | IC50 (human TLR9) [nM] | IC50 (human TLR7) [nM]
1 | Cc1nc(-c2ccc(N3CCN4CCCC4C3)c(F)c2F)cc2c1cc(-c1ccc(S(C)(=O)=O)cc1)n2C (stereo not drawn) [Example 99, 6-(2,3-difluoro-4-(hexahydropyrrolo[1,2-a]pyrazin-2(1H)-yl)phenyl)-1,4-dimethyl-2-(4-(methylsulfonyl)phenyl)-1H-pyrrolo[3,2-c]pyridine] | 250 | 1500
2 | CC(C)(O)CCN1CCN(Cc2ccc(-c3cc4c(cn3)cc(-c3ccc(S(C)(=O)=O)cc3)n4C3CC3)cc2)CC1 [Example 129, 4-(4-(4-(1-cyclopropyl-2-(4-(methylsulfonyl)phenyl)-1H-pyrrolo[3,2-c]pyridin-6-yl)benzyl)piperazin-1-yl)-2-methylbutan-2-ol] | 118 | 3600
3 | COc1ccc(-c2c(C)[nH]c3cnc(C4CCN(C(=O)CCN5CCCC5)CC4)cc23)cc1OC [Example 23, 1-(4-(3-(3,4-dimethoxyphenyl)-2-methyl-1H-pyrrolo[2,3-c]pyridin-5-yl)piperidin-1-yl)-3-(pyrrolidin-1-yl)propan-1-one] | 1110 | > 50000
4 | Cc1nc(-c2ccc(CN3CCN(CCCO)CC3)cc2)cc2c1cc(-c1ccc(S(C)(=O)=O)cc1)n2C [Example 58, 3-(4-(4-(1,4-dimethyl-2-(4-(methylsulfonyl)phenyl)-1H-pyrrolo[3,2-c]pyridin-6-yl)benzyl)piperazin-1-yl)propan-1-ol] | 107 | 8200
5 | COc1ccc(-c2c(C)[nH]c3cnc(C4CCN(C5CCN(C(=O)c6ccccc6)CC5)CC4)cc23)cc1OC [Example 14, (4-(3-(3,4-dimethoxyphenyl)-2-methyl-1H-pyrrolo[2,3-c]pyridin-5-yl)-[1,4′-bipiperidin]-1′-yl) (phenyl)methanone] | 313 | 8200
6 | Cc1nc(-c2ccc([C@]3(O)CCN(C(C)C)C(C)(C)C3)c(F)c2)cc2c1cc(-c1ccc(S(C)(=O)=O)cc1)n2C [Example 106, (S)-4-(4-(1,4-dimethyl-2-(4-(methylsulfonyl)phenyl)-1H-pyrrolo[3,2-c]pyridin-6-yl)-2-fluorophenyl)-1-isopropyl-2,2-dimethylpiperidin-4-ol] | 47 | 1500
7 | CC(C)(O)CN1C2CCC1CN(Cc1ccc(-c3cc4c(cn3)cc(-c3ccc(S(C)(=O)=O)cc3)n4C3CC3)cc1)C2 [Example 121, 1-[3-[[4-[1-cyclopropyl-2-(4-methylsulfonylphenyl)pyrrolo[3,2-c]pyridin-6-yl]phenyl]methyl]-3,8-diazabicyclo[3.2.1]octan-8-yl]-2-methyl-propan-2-ol] | 129 | 600
8 | COc1ccc(-c2cc3cnc(-c4ccc(N5CCN(C6CCC6)CC5)cc4)cc3n2C)cc1OC [Example 10, 6-(4-(4-Cyclobutylpiperazin-1-yl)phenyl)-2-(3,4-dimethoxyphenyl)-1-methyl-1H-pyrrolo[3,2-c]pyridine] | 66 | 13800
9 | COCCN1CCN(c2ccc(-c3cc4c(cc(-c5ccc(S(C)(=O)=O)cc5)n4C)c(C)n3)cc2)CC1 [Example 38, 6-(4-(4-(2-methoxyethyl)piperazin-1-yl)phenyl)-1,4-dimethyl-2-(4-(methylsulfonyl)phenyl)-1H-pyrrolo[3,2-c]pyridine] | 56 | 2600
10 | COc1ccc(-c2c(C)n(C)c3cnc(-c4ccc(N5CCN(CCC(C)(C)O)CC5)cc4)cc23)cc1OC [Example 33, 4-(4-(4-(3-(3,4-dimethoxyphenyl)-1,2-dimethyl-1H-pyrrolo[2,3-c]pyridin-5-yl)phenyl)piperazin-1-yl)-2-methylbutan-2-ol] | 27 | 3200
11 | Cc1nc(-c2ccc(N3CCN(CCCO)CC3)cc2)cc2c1cc(-c1ccc(S(C)(=O)=O)cc1)n2C [Example 36, 3-(4-(4-(1,4-dimethyl-2-(4-(methylsulfonyl)phenyl)-1H-pyrrolo[3,2-c]pyridin-6-yl)phenyl)piperazin-1-yl)propan-1-ol] | 59 | 4700
12 | COc1ccc(-c2cc3cnc(-c4ccc(N5CCN(C)CC5)cc4)cc3n2C)cc1OC [Example 27, 2-(3,4-dimethoxyphenyl)-1-methyl-6-(4-(4-methylpiperazin-1-yl)phenyl)-1H-pyrrolo[3,2-c]pyridine] | 45 | 2600
13 | COc1ccc(-c2cc3cnc(-c4ccc(N5CCN(C(C)C)CC5)cc4)cc3n2C)cc1OC [Example 24, 2-(3,4-dimethoxyphenyl)-6-(4-(4-isopropylpiperazin-1-yl)phenyl)-1-methyl-1H-pyrrolo[3,2-c]pyridine] | 59 | 3200
14 | Cc1nc(-c2cc(F)c(N3CC4CCC(C3)N4CCCO)cc2F)cc2c1cc(-c1ccc(S(C)(=O)=O)cc1)n2C [Example 79, 3-(3-(4-(1,4-dimethyl-2-(4-(methylsulfonyl)phenyl)-1H-pyrrolo[3,2-c]pyridin-6-yl)-2,5-difluorophenyl)-3,8-diazabicyclo[3.2.1]octan-8-yl) propan-1-ol] | 35 | 2700
15 | Cc1nc(-c2ccc(N3CCN(CCCO)CC3)cc2)cc2c1cc(-c1ccc(S(=O)(=O)C3CC3)cc1)n2C [Example 47, 3-(4-(4-(2-(4-(cyclopropylsulfonyl)phenyl)-1,4-dimethyl-1H-pyrrolo[3,2-c]pyridin-6-yl)phenyl)piperazin-1-yl)propan-1-ol] | 77 | 14700
16 | Cc1nc(-c2ccc(CN3CCN(CC(C)(C)O)CC3)cc2)cc2c1cc(-c1ccc(S(C)(=O)=O)cc1)n2C(F)F [Example 124, 1-(4-(4-(1-(difluoromethyl)-4-methyl-2-(4-(methylsulfonyl)phenyl)-1H-pyrrolo[3,2-c]pyridin-6-yl)benzyl)piperazin-1-yl)-2-methylpropan-2-ol] | 451 | > 50000
17 | Cc1nc(-c2ccc(N3CCN(C4CCOC4)CC3)c(F)c2)cc2c1cc(-c1ccc(S(C)(=O)=O)cc1)n2C (stereo not drawn) [Example 70, 6-(3-fluoro-4-(4-(tetrahydrofuran-3-yl)piperazin-1-yl)phenyl)-1,4-dimethyl-2-(4-(methylsulfonyl)phenyl)-1H-pyrrolo[3,2-c]pyridine] | 260 | > 25000
18 | Cc1nc(-c2cc(F)c(N3CCNCC3)cc2F)cc2c1cc(-c1ccc(S(C)(=O)=O)cc1)n2C [Example 43, 6-(2,5-Difluoro-4-(piperazin-1-yl)phenyl)-1,4-dimethyl-2-(4-(methylsulfonyl)phenyl)-1H-pyrrolo[3,2-c]pyridine] | 79 | 6200
